# From article PMC8288134, “Synthesis, potential antitumor activity, cell cycle analysis, and multitarget mechanisms of novel hydrazones incorporating a 4-methylsulfonylbenzene scaffold: a molecular docking study” (Journal of Enzyme Inhibition and Medicinal Chemistry, 2021)
# Where two headings read alike, the source gives them in different places.
# Legend:
# [1] = tested on: ovarian cancer tumour cell lines; settings: cited from earlier work; for GI50: read-out: GI50 (subpanel average), reference drugs, ref https://dtp.cancer.gov/dtpstandard/dwindex/index.jsp; for CC50: read-out: LC50 (subpanel average), reference drugs, ref https://dtp.cancer.gov/dtpstandard/dwindex/index.jsp; for TGI (subpanel average): reference drugs, ref https://dtp.cancer.gov/dtpstandard/dwindex/index.jsp
# HOP-92 = assay: NCI antitumor screen (SRB); assay type: cell-based; settings: Homo sapiens, five concentrations 0.01-100 µM
# [2] = tested on: breast cancer tumour cell lines; assay: NCI antitumor screen, subpanel; assay type: cell-based
# [3] = tested on: prostate cancer tumour cell lines; assay: NCI antitumor screen, subpanel; assay type: cell-based
# [4] = tested on: ovarian cancer tumour cell lines; assay: NCI antitumor screen, subpanel; assay type: cell-based
# [5] = tested on: NSC lung cancer tumour cell lines; assay: NCI antitumor screen, subpanel; assay type: cell-based
# [6] = tested on: colon cancer tumour cell lines; assay: NCI antitumor screen, subpanel; assay type: cell-based
# [7] = tested on: melanoma tumour cell lines; assay: NCI antitumor screen, subpanel; assay type: cell-based
# [8] = tested on: CNS cancer tumour cell lines; assay: NCI antitumor screen, subpanel; assay type: cell-based
# [9] = tested on: leukaemia tumour cell lines; assay: NCI antitumor screen, subpanel; assay type: cell-based
# [10] = tested on: renal cancer tumour cell lines; assay: NCI antitumor screen, subpanel; assay type: cell-based
# [11] = Homo sapiens, five concentrations
# [12] = Homo sapiens, read-out: LC50 (subpanel average)
compound,measurement,setting,value
"Cc1ccc(-c2cc(C(F)(F)F)nn2-c2ccc(S(N)(=O)=O)cc2)cc1 [Celecoxib, celecoxib]",GI50,[1],17.1 µM
same,CC50,[1],65.9 µM
same,TGI (subpanel average),[1],34.20 µM
"O=c1[nH]cc(F)c(=O)[nH]1 [Compound 5-Fu, 5-fluorouracil, reference compound]",GI50,[1],5.17 µM
same,CC50,[1],92.9 µM
same,TGI (subpanel average),[1],38.36 µM
CCN(CC)c1ccc(/C=N/NC(=O)c2ccc(S(C)(=O)=O)cc2)c(O)c1 [Compound 20],GI50,HOP-92,0.491 µM
same,TGI (subpanel average),[2],69.5 µM
same,GI50,[2]; [11],2.2 µM
same,CC50,[2]; [12],> 100 µM
same,TGI (subpanel average),[3],c (Compounds showed values ≥ 100 µM)
same,GI50,[3]; [11],0.23 µM
same,CC50,[3]; [12],> 100 µM
same,TGI (subpanel average),[4],70.0 µM
same,GI50,[4]; [11],1.1 µM
same,CC50,[4]; [12],> 100 µM
same,TGI (subpanel average),[5],65.0 µM
same,GI50,[5]; [11],0.26 µM
same,CC50,[5]; [12],> 100 µM
same,TGI (subpanel average),[6],c (Compounds showed values ≥ 100 µM)
same,GI50,[6]; [11],0.27 µM
same,CC50,[6]; [12],> 100 µM
same,TGI (subpanel average),[7],45.6 µM
same,GI50,[7]; [11],0.31 µM
same,CC50,[7]; [12],> 100 µM
same,TGI (subpanel average),[8],71.7 µM
same,GI50,[8]; [11],0.22 µM
same,CC50,[8]; [12],> 100 µM
same,TGI (subpanel average),[9],83.5 µM
same,GI50,[9]; [11],0.23 µM
same,CC50,[9]; [12],> 100 µM
same,TGI (subpanel average),[10],80.3 µM
same,GI50,[10]; [11],1.4 µM
same,CC50,[10]; [12],> 100 µM
"C#Cc1cccc(Nc2ncnc3cc(OCCOC)c(OCCOC)cc23)c1 [Erlotinib, erlotinib]",GI50,[1],5.52 µM
same,CC50,[1],97.1 µM
same,TGI (subpanel average),[1],74.41 µM
"COc1cc2ncnc(Nc3ccc(F)c(Cl)c3)c2cc1OCCCN1CCOCC1 [Gefitinib, gefitinib]",GI50,[1],3.05 µM
same,TGI (subpanel average),[1],33.29 µM
"CNC(=O)c1cc(Oc2ccc(NC(=O)Nc3ccc(Cl)c(C(F)(F)F)c3)cc2)ccn1 [Sorafenib, sorafenib]",GI50,[1],2.89 µM
same,CC50,[1],71.3 µM
same,TGI (subpanel average),[1],14.43 µM
